# From publication PMC6389703, “Identification of Biologically Active Ganoderma lucidum Compounds and Synthesis of Improved Derivatives That Confer Anti-cancer Activities in vitro” (Frontiers in Pharmacology, 2019)
# Tested on: SUM-149 cells
# Experiment: Annexin V/7-AAD apoptosis detection
# Format: cell-based, human
# Conditions: 48 h
# Experimental: SUM-149 cells (5 × 10^5) were seeded and treated either with vehicle (0.1% DMSO) or with 20 μM of EP or with puromycin (200 ng/mL) as positive control for 48 h. After treatment floating cells were collected, and all cells were harvested and counted. Treated cells were analyzed for cell death by using the FITC Annexin-V/7AAD Apoptosis detection kit (product #640922, Biolegend, San Diego, CA, United States) according to the manufacturer’s instructions. Briefly, cells were resuspended in Annexin Binding Buffer, stained with Annexin V-FITC and/or 7-AAD, and incubated for 30 min at 4°C. Data were acquired on a BD FACS Canto II cytometer (BD Biosciences, San José, CA, United States) and analyzed by using FlowJo software (V10, FlowJo, LLC, Ashland, OR, United States).
smiles,measurement,setting,value
"CC(C)[C@@H](C)/C=C/[C@@H](C)[C@H]1CC[C@@H]2[C@]1(C)CC[C@H]1[C@]23C=C[C@]2(C[C@@H](O)CC[C@]12C)OO3 [EP, ergosterol peroxide]",Early apoptotic cells,20μM,50.1%
same,Late apoptotic cells,20μM,3.2%
same,Live cells,20μM,45.9%
same,"decrease of live cells (Annexin-, 7AAD-)",vs vehicle,~15%
